Here are results for one molecule from patent publication US20090082322A1, “Gender Differences in Experimental Aortic Aneurysm Formation” (THE REGENTS OF THE UNIVERSITY OF MICHIGAN, priority 2004, published 2009).

The subject of the assay is MMP-9. Briefly: Aortic MMP-9 immunohistochemistry, ED-1 colocalization and quantitative PCR. The assay is classed as in vivo, Sprague-Dawley rats. From the text:
In other experiments, male rats were randomized to implantation of an estrogen pellet or sham implantation (n=13, each). The former involved the subcutaneous implantation of a 21-day slow-release 0.1-mg 17-β-estradiol pellet (Innovative Research of America, Sarasota, Fla.) in the posterior neck. Sham rats underwent the same implantation procedure without insertion of any pellet. This particular estradiol dose results in serum estradiol levels at 2 to 3 weeks of 44.7±6.1 pg/mL compared with 15.0±2.2 pg/mL in control rats (P<0.05). Rat aortas from both groups were subjected to elastase perfusion 5 days later. The aortas were then removed for study 7 or 14 days after elastase perfusion.
Immunohistochemistry was undertaken after deparaffinization, rehydration, and unmasking using Trilogy (Cell Marque Corp, Hot Springs, Ariz.) in a Princess model pressure cooker (Cell Marque). Endogenous peroxidase activity was then blocked using 3% hydrogen peroxide in methanol. To help ensure that rejection was not occurring in elastase-perfused or transplanted animals, anti-T lymphocyte immunohistochemistry was performed. Specifically, antirat CD3 monoclonal antibody (BD Pharmingen, San Diego, Calif.) was used as the primary antibody and mouse IgG Vectastain (Vector Laboratories, Burlingame, Calif.) as the secondary antibody. Rat spleen was used as the positive control for anti-CD3 staining. […]
Expression of MMP-9 and β-actin mRNA was determined using quantitative PCR. […] The resultant cDNA was amplified by Taq Polymerase (Promega, Madison, Wis.) in a SmartCycler quantitative PCR system (Cepheid, Sunnyvale, Calif.). […]
MMP-9 forward primer, CGCCAACTATGACCAGGATA (SEQ ID NO: 1); MMP-9 reverse primer, GTT GCC CCC AGT TAC AGT (SEQ ID NO: 2); β-actin forward primer, ATGGGTCAGAAGGATTCCTATGTG (SEQ ID NO: 3); β-actin reverse primer, CTTCATGAGGTAGTCAGTCAGGTC (SEQ ID NO: 4). […] Quantification of mRNA levels used ΔCt values, calculated by the formula: […]
Expression of the target gene in ratio to β-actin expression was calculated by the formula: […]

Take `C[C@]12CC[C@@H]3c4ccc(O)cc4CC[C@H]3[C@@H]1CC[C@@H]2O` [17-β-estradiol]: the “aortic MMP-9 staining” value (immunohistochemistry, estradiol treated rats compared with sham rats) is reported as “less evident”. The “aortic MMP-9 mRNA expression” value (quantitative PCR normalized to β-actin, 7 days after elastase perfusion, sham 0.12±0.04, P=0.11) came to 0.0017±0.004 mRNA copies. Besides, the “colocalization of aortic ED-1 and MMP-9” value (rats treated with estradiol compared with sham rats) is given as “less prominently stained cells”.
